According to PMC10342305, “Identification of N-Acyl Hydrazones as New Non-Zinc-Binding MMP-13 Inhibitors by Structure-Based Virtual Screening Studies and Chemical Optimization” (International Journal of Molecular Sciences, 2023):

How the values were obtained:
MMP-1 = target: T1, MMP-1 (Homo sapiens, UniProt P03956); assay: Fluorometric enzyme inhibition assay on MMP-1
T1 sequence (P03956 100-469): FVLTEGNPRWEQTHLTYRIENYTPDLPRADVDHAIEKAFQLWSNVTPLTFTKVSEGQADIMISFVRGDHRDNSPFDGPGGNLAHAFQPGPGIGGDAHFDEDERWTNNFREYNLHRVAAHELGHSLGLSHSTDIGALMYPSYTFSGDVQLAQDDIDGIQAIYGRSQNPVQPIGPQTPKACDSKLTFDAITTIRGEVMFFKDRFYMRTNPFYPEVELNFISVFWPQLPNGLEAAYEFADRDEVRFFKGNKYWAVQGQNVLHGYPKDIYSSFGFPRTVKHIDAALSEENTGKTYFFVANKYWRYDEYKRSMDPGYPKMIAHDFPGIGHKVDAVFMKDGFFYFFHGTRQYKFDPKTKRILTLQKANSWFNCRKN

MMP-2 = target: T2, MMP-2 (Homo sapiens, UniProt P08253); assay: Fluorometric enzyme inhibition assay on MMP-2
T2 sequence (P08253 110-660): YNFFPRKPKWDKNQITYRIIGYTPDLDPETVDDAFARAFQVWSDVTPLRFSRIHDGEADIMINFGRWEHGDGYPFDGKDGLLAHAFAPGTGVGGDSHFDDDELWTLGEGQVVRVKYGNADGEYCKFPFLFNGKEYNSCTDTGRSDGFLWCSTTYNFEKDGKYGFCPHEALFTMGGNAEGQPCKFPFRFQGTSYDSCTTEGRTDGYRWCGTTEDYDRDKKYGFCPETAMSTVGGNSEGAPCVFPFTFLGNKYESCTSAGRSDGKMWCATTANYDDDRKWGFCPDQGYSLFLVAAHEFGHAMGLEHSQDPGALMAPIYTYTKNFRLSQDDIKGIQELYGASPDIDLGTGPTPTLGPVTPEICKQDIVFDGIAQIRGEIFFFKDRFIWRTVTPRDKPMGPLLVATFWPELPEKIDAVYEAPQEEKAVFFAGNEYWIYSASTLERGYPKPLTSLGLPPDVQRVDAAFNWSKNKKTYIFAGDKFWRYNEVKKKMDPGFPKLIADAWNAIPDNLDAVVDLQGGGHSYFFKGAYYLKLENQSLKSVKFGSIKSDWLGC

MMP-9 = MMP-9 (Homo sapiens, UniProt P14780); assay: Fluorometric enzyme inhibition assay on MMP-9
MMP-9, sequence (P14780 107-707 limits assumed): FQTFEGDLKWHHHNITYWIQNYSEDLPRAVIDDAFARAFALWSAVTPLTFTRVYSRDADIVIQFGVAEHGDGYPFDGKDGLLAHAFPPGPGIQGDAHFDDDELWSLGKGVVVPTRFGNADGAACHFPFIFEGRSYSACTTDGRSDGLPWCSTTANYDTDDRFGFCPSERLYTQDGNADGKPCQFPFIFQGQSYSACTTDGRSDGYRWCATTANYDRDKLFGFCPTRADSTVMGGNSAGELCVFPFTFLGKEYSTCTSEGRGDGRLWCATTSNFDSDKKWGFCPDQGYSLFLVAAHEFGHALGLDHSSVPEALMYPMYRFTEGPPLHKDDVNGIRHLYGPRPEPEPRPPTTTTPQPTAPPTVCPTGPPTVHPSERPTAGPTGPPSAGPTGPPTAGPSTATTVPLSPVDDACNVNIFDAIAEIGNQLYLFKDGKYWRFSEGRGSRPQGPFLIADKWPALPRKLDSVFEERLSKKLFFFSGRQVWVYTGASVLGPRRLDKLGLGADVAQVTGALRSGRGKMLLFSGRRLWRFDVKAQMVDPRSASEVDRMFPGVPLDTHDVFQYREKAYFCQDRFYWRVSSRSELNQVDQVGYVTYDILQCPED

MMP-14 = target: T3, MMP-14 (Homo sapiens, UniProt P50281); assay: Fluorometric enzyme inhibition assay on MMP-14 catalytic domain; assay type: biochemical; conditions: mean ± SD of three independent experiments
T3 construct: Recombinant human MMP-14 catalytic domain; gift from Prof; Gillian Murphy (Department of Oncology, University of Cambridge, UK)
Experimental: (§1) Recombinant human MMP-14 catalytic domain was a kind gift from Prof. Gillian Murphy (Department of Oncology, University of Cambridge, UK). Pro-MMP-1, pro-MMP-2, pro-MMP-9, and pro-MMP-13 were purchased from Merck Millipore (Burlington, MA, USA). p-Aminophenylmercuric acetate (APMA) was from Sigma-Aldrich (St. Louis, MO, USA).
(§2) For assay measurements, the purchased compound stock solutions (10 mM in DMSO) were further diluted for each MMP in the fluorometric assay buffer (FAB: Tris 50 mM, pH = 7.5, NaCl 150 mM, CaCl2 10 mM, Brij 35 0.05%, and DMSO 1%), following the protocol already reported. […] The assays were performed in triplicate with a total volume of 200 μL per well in 96-well microtitre plates (Corning, black, NBS, Turin, Italy). The MMP inhibition activity was expressed in relative fluorescent units (RFU). The percentage of inhibition was calculated from control reactions without the inhibitor. The inhibitory effect of the tested compounds was routinely estimated at a concentration of 100 μM on MMP-13. […] Results were analyzed using SoftMax Pro software version 5.4.3 (Molecular Devices, Sunnyvale, CA, USA) and Prism Software version 5.0 (GraphPad Software, Inc., La Jolla, CA, USA).

MMP-13 = target: T4, MMP-13 (Homo sapiens, UniProt P45452); assay: Fluorometric enzyme inhibition assay on MMP-13; assay type: biochemical; conditions: mean ± SD of three independent experiments
T4 construct: purchased Merck Millipore (Burlington, MA, USA)
Source text: ARP100 [26], a hydroxamate-based MMP inhibitor previously developed by our research group, was used in the same assay conditions as the reference compound.
as §1, §2

N#C/C(=C\c1cn(Cc2ccc(Cl)cc2)c2ccccc12)c1nn(-c2ccccc2)c(N)c1C#N [Compound 11]
IC50 (MMP-1): 99 ± 8 µM | IC50 (MMP-2): 60 ± 4.6 µM | IC50 (MMP-9): 66 ± 4.6 µM | IC50 (MMP-14): 94 ± 5.5 µM

O=C(COC(=O)c1ccccc1Sc1ccc([N+](=O)[O-])cc1)c1ccc(-c2ccccc2)cc1 [Compound 12]
IC50 (MMP-1): 75 ± 4 µM | IC50 (MMP-2): 47 ± 1.6 µM | IC50 (MMP-9): 72 ± 4.8 µM | IC50 (MMP-14): 67 ± 4.6 µM

C/C(=N\NC(=O)Cc1ccc([N+](=O)[O-])cc1)c1ccc(NC(=O)c2ccc(Br)o2)cc1 [Compound 13, (E)-5-bromo-N-(4-(1-(2-(2-(4-nitrophenyl)acetyl)hydrazineylidene)ethyl)phenyl)furan-2-carboxamide]
IC50 (MMP-1): 91 ± 0.8 µM | IC50 (MMP-2): 99 ± 6 µM | IC50 (MMP-9): 68 ± 3 µM | IC50 (MMP-14): 63 ± 5.4 µM

C/C(=N\NC(=O)Cc1ccc([N+](=O)[O-])cc1)c1ccc(NC(=O)c2ccc(S(N)(=O)=O)o2)cc1 [Compound 13a]
IC50 (MMP-13): > 100 µM | melting point: 255 to 258 °C

C/C(=N\NC(=O)Cc1ccc([N+](=O)[O-])cc1)c1ccc(NC(=O)c2ccc(CO)o2)cc1 [Compound 13b, (E)-5-(hydroxymethyl)-N-(4-(1-(2-(2-(4nitrophenyl)acetyl)hydrazineylidene)ethyl)phenyl) furan-2-carboxamide]
IC50 (MMP-13): > 100 µM | melting point: 238 to 241 °C

O=C(Cc1ccc([N+](=O)[O-])cc1)N/N=C/c1ccc(NC(=O)c2ccc(Br)o2)cc1 [Compound 13c, (E)-5-bromo-N-(4-((2-(2-(4-nitrophenyl)acetyl)hydrazineylidene)methyl)phenyl)furan-2-carboxamide]
melting point: 277 to 279 °C

O=C(Cc1ccc([N+](=O)[O-])cc1)N/N=C/c1ccc(NC(=O)c2ccc(CO)o2)cc1 [Compound 13d, (E)-5-(hydroxymethyl)-N-(4-((2-(2-(4-nitrophenyl)acetyl)hydrazineylidene)methyl)phenyl) furan-2-carboxamide]
IC50 (MMP-13): 40 ± 3.5 µM | melting point: 246 to 248 °C

C/C(=N\NC(=O)Cc1ccc(-c2nc(C)no2)cc1)c1ccc(NC(=O)c2ccc(Br)o2)cc1 [Compound 13e, (E)-5-bromo-N-(4-(1-(2-(2-(4-(3-methyl-1,2,4-oxadiazol-5-yl)phenyl)acetyl)hydrazineylidene)ethyl)phenyl)furan-2-carboxamide]
IC50 (MMP-13): > 100 µM | melting point: 252 to 255 °C

C/C(=N\NC(=O)Cc1ccc(-c2nc(C)no2)cc1)c1ccc(NC(=O)c2ccc(CO)o2)cc1 [Compound 13f, (E)-5-(hydroxymethyl)-N-(4-(1-(2-(2-(4-(3-methyl-1,2,4-oxadiazol-5-yl)phenyl)acetyl)hydrazineylidene)ethyl)phenyl)furan-2-carboxamide]
melting point: 243 to 246 °C

Cc1noc(-c2ccc(CC(=O)N/N=C/c3ccc(NC(=O)c4ccc(CO)o4)cc3)cc2)n1 [Compound 13g, (E)-5-(hydroxymethyl)-N-(4-((2-(2-(4-(3-methyl-1,2,4-oxadiazol-5-yl)phenyl)acetyl) hydrazono)methyl)phenyl)furan-2-carboxamide]
melting point: 232 to 235 °C

C/C(=N\NC(=O)Cc1ccc(C(=O)O)cc1)c1ccc(NC(=O)c2ccc(Br)o2)cc1 [Compound 13h, (E)-4-(2-(2-(1-(4-(5-bromofuran-2-carboxamido)phenyl)ethylidene)hydrazineyl)-2-oxoethyl)benzoic acid]
melting point: 292 to 295 °C

C/C(=N\NC(=O)Cc1ccc(C(=O)O)cc1)c1ccc(NC(=O)c2ccc(CO)o2)cc1 [Compound 13i, (E)-4-(2-(2-(1-(4-(5-(hydroxymethyl)furan-2-carboxamido)phenyl)ethylidene)hydrazineyl)-2-oxoethyl)benzoic acid]
melting point: 232 to 235 °C

O=C(Cc1ccc(C(=O)O)cc1)N/N=C/c1ccc(NC(=O)c2ccc(Br)o2)cc1 [Compound 13l, (E)-4-(2-(2-(4-(5-bromofuran-2-carboxamido)benzylidene)hydrazineyl)-2-oxoethyl)benzoic acid]
melting point: 307 to 310 °C

O=C(Cc1ccc(C(=O)O)cc1)N/N=C/c1ccc(CNC(=O)c2ccc(Br)o2)cc1 [Compound 13m, (E)-4-(2-(2-(4-((5-bromofuran-2-carboxamido)methyl)benzylidene)hydrazineyl)-2-oxoethyl)benzoic acid]
IC50 (MMP-1): 177 ± 20 µM | IC50 (MMP-2): 3.6 ± 0.4 µM | IC50 (MMP-9): 50 ± 3.2 µM | IC50 (MMP-14): > 200 µM

O=C(Cc1ccc(-c2nnn[nH]2)cc1)N/N=C/c1ccc(NC(=O)c2ccc(Br)o2)cc1 [Compound 13n, (E)-N-(4-((2-(2-(4-(1H-tetrazol-5-yl)phenyl)acetyl)hydrazineylidene)methyl)phenyl)-5-bromofuran-2-carboxamide]
melting point: 262 to 265 °C

O=C(Cc1ccc(-c2nnn[nH]2)cc1)N/N=C/c1ccc(CNC(=O)c2ccc(Br)o2)cc1 [Compound 13o, (E)-N-(4-((2-(2-(4-(1H-tetrazol-5-yl)phenyl)acetyl)hydrazineylidene)methyl)benzyl)-5-bromofuran-2-carboxamide]
melting point: 245 to 248 °C
